Read-outs that look alike come from different tables or passages of the source. Marks after values point to notes of the source that are not given here. One block for each molecule: values may come before it.
Legend:
[1] = system: progesterone receptor (PR); assay: ERα functional antagonism cell assay (PR as biomarker) in MCF-7; format: cell-based; conditions: Homo sapiens, MCF7; progesterone receptor as biomarker for ERα antagonism in MCF-7
[2] = system: MDA-MB-231 cell lines; assay: MTT antiproliferative assay; format: cell-based, human
[3] = Liver oxidative stress markers after treatment of MNU-induced rats; format: in vivo, Wistar rats; conditions: rat, in vivo
Method: (§1) Rats were housed at 3 per cage and
(§2) The breast cancer was induced after the MNU (Sigma Aldrich CAS No. 684-93-5) administration. An aqueous solution at a concentration of 10 mg/ml was made by wetting the NMU powder with 3% acetic acid and then dissolving it in 0.9% NaCl solution; a fresh solution was prepared for each injection. Rats were given intraperitoneal (i.p.) 50 mg/kg of MNU on the 50th day of age. Animals were divided into different groups with six animals in each group. Group I (intact control) received 0.9% NaCl solution.
(§3) Groups II-IV and V-VII were introduced with MNU. Two weeks after MNU treatment, animals were treated orally with synthesized compounds and control substances (5 and 50 mg/kg, for groups II-IV and V-VII, respectively) by gavage once per day for six weeks. Animals in the intact control group and untreated MNU group were given vehicle (Tween 80) according to the experimental protocol. […]
(§4) Upon finishing the treatment with synthesized compounds, animals were sacrificed, and plasma, serum, and liver samples were collected. […]
Determination of Antioxidant Markers in Liver Homogenate
Rat liver samples were homogenized in phosphate buffer (5 mM, pH = 7.4) to give a 10% (w/v) liver homogenate and then centrifuged at 4000 rpm for 15 min at 4°C. The supernatant of liver homogenate was used for the estimation of reduced glutathione (GSH) and catalase (CAT) levels by the colorimetric method. The contents of malondialdehyde (MDA) in the supernatant of the liver homogenates were determined using 1,1,3,3-tetraethoxypropane as standard. Total protein concentrations were determined according to the method of Lowry using bovine serum albumin as […]

[4] = system: MCF-7 cell lines; assay: MTT antiproliferative assay; format: cell-based, human
[5] = system: MNU-induced breast cancer tissue; assay: Histopathology of breast sections; format: in vivo, Wistar rats
Excerpt: The impact of selected leads on BC tissue was registered after their administration to experimental animals with MNU-induced BC (Figure 9 and Supplementary Material Figures S211–S218). […] In contrast to this, the administered leads were harmless in both concentrations, neutralizing the MNU-induced changes, judging by the lobuloalveolar units and cuboidal epithelial cells found (Figure 9C,D, and Supplementary Material Figures S214–S218). […]
Histopathological Studies
histopathological changes. […]

[6] = system: MCF-7 cells; assay: Cell cycle distribution by flow cytometry; format: cell-based, human; conditions: 24 h
[7] = physchem; conditions: pH 7.4
[8] = Serum biochemical markers after treatment of MNU-induced rats; format: in vivo, Wistar rats; conditions: for ALP (A/L) / ALT (A/L) / AST (U/L) / γ-GT (U/L): serum; for TBC: total bilirubin content
Method: as §1, §2, §3
Upon finishing the treatment with synthesized compounds, animals were sacrificed, and plasma, serum, and liver samples were collected.
Measurement of Serum Biochemical Markers
The activities of AST and ALT on 340 nm, and ALP on 405 nm, were determined by UV-Vis kinetic methods according to recommendations of the Expert Panel of the IFCC (International Federation of Clinical Chemistry). The colorimetric methods were used for the determination of total bilirubin (Jendrassik-Grof 550 nm method). All kinetic and colorimetric measurements were recorded using a Perkin-Elmer Lambda 25 UV/Vis spectrophotometer. […]

[9] = rat, in vivo
[10] = system: MNU-induced breast cancer; assay: In vivo anticancer screening, MNU-induced mammary tumorigenesis; set-up: species or system female Wistar rats
[11] = target: ERβ (Homo sapiens, UniProt Q92731); assay: Fluorescence polarization competition assay: antagonistic potency and relative binding affinity; conditions: log of % relative binding affinity, estradiol = 100%
[12] = system: Ishikawa endometrial adenocarcinoma cells; assay: Antiproliferative assay; format: cell-based; conditions: Homo sapiens, growth inhibition
[13] = Plasma protein binding determination; format: in vitro ADME, rat; conditions: rat, plasma
Method: as §1, §2, §3, §4
Rat plasma containing either 5 or 50 mg/kg bwt of the tested compounds was incubated at 37°C upper reservoir of the washed Centri-free YM-30 ultrafiltration units (Millipore, Bedford, MA) and then centrifuged for 20 min at 2,000 g. Aliquots of the ultrafiltrates and unfiltered incubation mixtures were analyzed for the total protein concentration by the bicinchoninic acid assay for protein concentration (BCA assay; Pierce, Rockford, IL).

[14] = both, Wistar, rat, in vivo, po
[15] = system: MRC-5 human lung fibroblast cell lines
[16] = target: T1, ERα (Homo sapiens, UniProt P03372); assay: Fluorescence polarization competition assay: antagonistic potency and relative binding affinity; conditions: virtually screened NCI hits, Table S17; read-out: ERα (IC50)
T1 sequence (P03372 1-595): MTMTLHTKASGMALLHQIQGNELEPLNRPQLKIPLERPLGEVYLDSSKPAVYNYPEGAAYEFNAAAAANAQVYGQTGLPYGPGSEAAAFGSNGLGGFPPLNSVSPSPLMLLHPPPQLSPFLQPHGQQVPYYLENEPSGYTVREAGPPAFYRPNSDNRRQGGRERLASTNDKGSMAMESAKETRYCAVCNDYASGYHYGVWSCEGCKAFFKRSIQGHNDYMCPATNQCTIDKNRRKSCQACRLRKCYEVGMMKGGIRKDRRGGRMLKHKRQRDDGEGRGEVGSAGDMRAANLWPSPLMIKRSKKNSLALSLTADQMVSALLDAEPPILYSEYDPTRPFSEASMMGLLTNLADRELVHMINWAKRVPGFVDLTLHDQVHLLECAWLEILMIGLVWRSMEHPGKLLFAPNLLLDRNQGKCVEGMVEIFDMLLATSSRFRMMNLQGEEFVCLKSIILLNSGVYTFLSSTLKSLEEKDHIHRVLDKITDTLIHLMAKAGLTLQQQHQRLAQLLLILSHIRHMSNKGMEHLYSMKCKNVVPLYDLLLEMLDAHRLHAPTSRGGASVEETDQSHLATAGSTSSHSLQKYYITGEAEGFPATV

[17] = dose 50 mg/kg (compounds per os after MNU; MNU alone i.p.)
[18] = virtually screened NCI hits, Table S17, read-out: MDA-MB-231 (IC50)
[19] = virtually screened NCI hits, Table S17, read-out: MCF-7 (IC50)

ERβ, sequence (Q92731 whole entry): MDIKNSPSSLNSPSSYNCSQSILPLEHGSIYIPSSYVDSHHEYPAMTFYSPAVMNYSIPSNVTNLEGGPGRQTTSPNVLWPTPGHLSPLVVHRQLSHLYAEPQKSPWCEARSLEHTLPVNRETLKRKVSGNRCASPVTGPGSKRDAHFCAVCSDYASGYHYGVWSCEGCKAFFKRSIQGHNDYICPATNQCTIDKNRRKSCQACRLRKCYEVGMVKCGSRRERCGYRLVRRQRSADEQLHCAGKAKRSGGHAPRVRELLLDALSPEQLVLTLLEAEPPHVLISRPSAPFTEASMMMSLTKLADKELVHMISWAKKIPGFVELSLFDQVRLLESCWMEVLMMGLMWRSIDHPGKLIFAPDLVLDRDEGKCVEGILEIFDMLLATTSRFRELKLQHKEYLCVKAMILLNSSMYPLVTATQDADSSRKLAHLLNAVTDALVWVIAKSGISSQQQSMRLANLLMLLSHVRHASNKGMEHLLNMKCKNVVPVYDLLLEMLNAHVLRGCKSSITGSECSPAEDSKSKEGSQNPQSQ

Structure (SMILES): O=C(c1ccc(OCCN2CCCCC2)cc1)c1c(-c2ccc(O)cc2)sc2cc(O)ccc12 [Ral., Raloxifene, reference compound]
IC50 [1]: > 100 nM | IC50 ([2]; growth inhibition, 48 h, read-out: MDA-MB-231 (IC50 nM)): 93.41 ± 0.48 nM | IC50 ([2]; references in Table S17, read-out: MDA-MB-231 (IC50 nM)): 93.12 ± 0.24 nM | CAT ([3]; 5 mg/kg): 10.73±0.32 | GSH ([3]; 5 mg/kg): 6.65 mg/g | SOD (U/mg) ([3]; 5 mg/kg): 6.89±0.56 U/mg | TBARS ([3]; 5 mg/kg): 2.31 ± 0.56 nmol/mg | TP ([3]; 5 mg/kg): 42.67 g/L | CAT ([3]; 50 mg/kg): 14.43±0.56 | GSH ([3]; 50 mg/kg): 5.54 ± 0.36 mg/g | SOD (U/mg) ([3]; 50 mg/kg): 8.46±0.23 U/mg | TBARS ([3]; 50 mg/kg): 2.63 ± 0.21 nmol/mg | TP ([3]; 50 mg/kg): 44.43 g/L | IC50 ([4]; read-out: MCF-7 (IC50 nM)): 0.9 ± 0.19 nM | breast section histopathology ([5]; 5 mg/kg of bwt): differentiated extralobular ducts (ED) | breast section histopathology ([5]; 50 mg/kg of bwt): differentiated extralobular ducts (ED) | Cell Cycle (%) G0/G1 ([6]; 0.1 nM): 59.14 ± 0.54 *^,†,‡ % | Cell Cycle (%) G2/M ([6]; 0.1 nM): 25.03 ± 0.35 *^,†,‡ % | Cell Cycle (%) S ([6]; 0.1 nM): 15.83 ± 0.53 *^,†,‡ % | Cell Cycle (%) G0/G1 ([6]; 1 nM): 66.52 ± 0.56 *^,†,‡ % | Cell Cycle (%) G2/M ([6]; 1 nM): 17.11 ± 0.46 *^,†,‡ % | Cell Cycle (%) S ([6]; 1 nM): 16.37 ± 0.46 *^,†,‡ % | logD at 30 min [7]: 2.39 | ALP (A/L) ([8]; dose 5 mg/kg): 99.54±0.32 A/L | ALT (A/L) ([8]; dose 5 mg/kg): 50.14±0.35 A/L | AST (U/L) ([8]; dose 5 mg/kg): 53.57±0.43 U/L | γ-GT (U/L) ([8]; dose 5 mg/kg): 11.43 U/L | ALP (A/L) ([8]; dose 50 mg/kg): 106.43±0.54 A/L | ALT (A/L) ([8]; dose 50 mg/kg): 52.46±0.42 A/L | AST (U/L) ([8]; dose 50 mg/kg): 58.41±0.32 U/L | γ-GT (U/L) ([8]; dose 50 mg/kg): 12.35±0.31 U/L | TBC ([8]; dose 5 mg/kg): 18.53 | TBC ([8]; dose 50 mg/kg): 22.46 | WL after MFD (day 1, mg) [9]: 310.54 ± 0.45 mg | WL after MFD (day 5, mg) [9]: 300.54 ± 0.48 mg | Tumor Burden (week) ([10]; dose 5 mg/kg per os after MNU): 3.11 ± 0.47 *^,†,‡ week | Tumor Latency (week) ([10]; dose 5 mg/kg per os after MNU): 8 * week | Tumor Volume (mm^3) ([10]; dose 5 mg/kg per os after MNU): 1.67 ± 0.31 *^,†,‡ mm^3 | Tumor Burden (week) [10, 17]: 2.91 ± 0.22 *^,†,§ week | Tumor Latency (week) [10, 17]: 13 *^,† week | Tumor Volume (mm^3) [10, 17]: 1.41 ± 0.54 *^,†§ mm^3 | logRBA ERβ [11]: 1.42 ^† | IC50 [12]: 0.97 ± 0.35 nM | fraction unbound at 5 mg/kg bwt [13]: 0.0185 | fraction unbound at 50 mg/kg bwt [13]: 0.019 | BIO ([14]; 5 mg/kg): 93 ^‡ | BIO ([14]; 50 mg/kg): 96

IC50 [15]: > 100 µM
Structure (SMILES): O=c1c(-c2ccc(O)cc2)coc2cc(O)cc(O)c12 [Compound 36586]
IC50 [2, 18]: > 100000 nM | IC50 [4, 19]: > 100000 nM

Structure (SMILES): c1ccc(-n2c3ccccc3c3ccccc32)cc1 [Compound 10416]
IC50 [16]: 74.8 ± 6.46 µM | IC50 [2, 18]: > 100000 nM | IC50 [4, 19]: 89000 ± 11400 nM | IC50 [15]: > 100 µM

Structure (SMILES): O=C(c1ccccc1)c1ccccc1C(=O)c1ccccc1 [Compound 6145]
IC50 [16]: 75.5 ± 6.46 µM | IC50 [2, 18]: > 100000 nM | IC50 [4, 19]: 93400 ± 11400 nM | IC50 [15]: > 100 µM

Structure (SMILES): COc1ccc(C(C#N)=C(c2ccccc2)c2ccccc2)cc1 [Compound 101789]
IC50 [16]: 17.9 ± 1.34 µM | IC50 [2, 18]: > 100000 nM | IC50 [4, 19]: 25900 ± 11400 nM | IC50 [15]: 14.2 ± 11.4 µM

Structure (SMILES): O=C(O)c1ccccc1-n1c2ccccc2c2ccccc21 [Compound 10211]
IC50 [16]: 66.9 ± 6.46 µM | IC50 [2, 18]: > 100000 nM | IC50 [15]: > 100 µM
